For data set [1] the following is noted: dogs, packed into a gelatin capsule; cited from earlier work.
For data set [2], the system named is rats. The conditions noted are these: cited from earlier work.
For data set [3] the following is noted: human clinical oncology studies; cited from earlier work.
The test system of the next data set is variety of other tumours. The conditions noted are these: cited from earlier work.
The test system of another data set is Walker tumour. The conditions noted are these: specific rat tumour ('Walker tumour'); cited from earlier work.
A further data set concerns rat. As to conditions: administered intraperitoneally; cited from earlier work.
A further data set concerns mouse. As to conditions: cited from earlier work.
Data set [4] deals with rats. The data set is described as follows: toxic effects in rats when administered via the oral route. The data set is classed as in vivo. The text has this:
As mentioned above, rats are particularly troublesome vermin. […] For example, Tretazicar is particularly toxic towards rats compared to other rodents. […] This feature is believed to help prevent bait-shyness.

The next data set relates to human cells. As to conditions: cited from earlier work.

The values below come from US8785428B2, “Vermin poison” (priority 2006, dated 2014).

By LD50 is commonly meant the dose at which mortality reaches 50%. Regarding `NC(=O)c1cc(N2CC2)c([N+](=O)[O-])cc1[N+](=O)[O-]` [Tretazicar, 5-(aziridin-1-yl)-2,4-dinitrobenzarnide], the oral bioavailability result in data set [1] is listed as “about 40%”. Further, the toxicity entry in the data set on rats [2] was “toxic to rats”. Moreover, the therapeutic benefit entry in data set [3] is “no therapeutic benefit”. The “effect on other tumours” value in the data set with variety of other tumours was “little or no effect”. Further, the “effect on Walker tumour” value in the data set on Walker tumour is given as “capable of eradicating”. The figures for the LD50 with rat and in the data set on mouse were 28 mg/kg and 220 mg/kg, respectively. The “onset of toxic effects” value in the data set with rats [4] was “delayed”. In the data set with human cells, the “sensitivity of cells to the effects of the compound” value was “insensitive”.
